Patent US9850283B2, “Macrocyclic inhibitors of the PD-1/PD-L1 and CD80(B7-1)/PD-L1 protein/protein interactions” (BRISTOL-MYERS SQUIBB COMPANY, priority 2013, dated 2017)
Like-named read-outs stand apart in the source and are kept apart here. Starred links: 1 amine or outer side, 2 acyl side, 3 side chain; linkers in the order of their positions; H or OH if unused. Positions of bridges follow the written chain, without caps; N, C: chain ends. Non-standard residues stand in square brackets, D forms with d. Residues, ends and D or L forms follow the SMILES beside them. X3 = O=C([C@@H]1C[C@@H](Cc2ccc(F)cc2)CN1[*:1])[*:2]; Pro(4R-Bn) = O=C(O)[C@@H]1C[C@@H](Cc2ccccc2)CN1; Ala(4-thiazolyl) = N[C@@H](Cc1cscn1)C(=O)O; Hyp = O=C(O)[C@@H]1C[C@@H](O)CN1; NMeF = CN[C@@H](Cc1ccccc1)C(=O)O; 3Pal = N[C@@H](Cc1cccnc1)C(=O)O; NMeNle = CCCC[C@H](NC)C(=O)O; NMeA = CN[C@@H](C)C(=O)O; Orn = NCCC[C@H](N)C(=O)O; Dab = NCC[C@H](N)C(=O)O; Dap = NC[C@H](N)C(=O)O; Sar = CNCC(=O)O

How the values were obtained:
Human PD-L1/PD-1 = biological target: T1, Human PD-L1/PD-1 (Homo sapiens, UniProt Q9NZQ7); test: HTRF PD-1-Ig/PD-L1-His binding assay (human PD-L1); conditions: cluster symbol; read-out: HTRF IC50 cluster
T1 construct: made in house; host or cells: HEK293T
T1 sequence (Q9NZQ7 with tags, fused parts or gaps): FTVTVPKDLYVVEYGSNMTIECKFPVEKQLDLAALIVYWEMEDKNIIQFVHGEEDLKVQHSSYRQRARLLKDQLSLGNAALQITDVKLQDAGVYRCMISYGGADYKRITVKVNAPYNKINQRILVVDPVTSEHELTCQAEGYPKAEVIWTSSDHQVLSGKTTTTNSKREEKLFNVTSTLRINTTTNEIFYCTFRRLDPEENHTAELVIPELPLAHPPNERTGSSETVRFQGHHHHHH
Summary of the method: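 Steps: truncated PD-1-Ig and PD-L1-His fusions are incubated in dPBS containing 0.1% (w/v) BSA and 0.05% (v/v) Tween-20. Detection antibodies are then added (Eu cryptate anti-Ig at 1 nM final, APC anti-His at 20 nM final), and time-resolved FRET is measured.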

[1] = biological target: T2, LK35.2-hPD-L1 cells / PE-labeled PD-1-Ig (Homo sapiens, UniProt Q9NZQ7); test: LK35.2-hPD-L1 cell binding high-content screening assay; format: cell-based
T2 construct: expressed in transfected cells; host or cells: LK35.2 mouse B cell line
T2 sequence (Q9NZQ7 19-290): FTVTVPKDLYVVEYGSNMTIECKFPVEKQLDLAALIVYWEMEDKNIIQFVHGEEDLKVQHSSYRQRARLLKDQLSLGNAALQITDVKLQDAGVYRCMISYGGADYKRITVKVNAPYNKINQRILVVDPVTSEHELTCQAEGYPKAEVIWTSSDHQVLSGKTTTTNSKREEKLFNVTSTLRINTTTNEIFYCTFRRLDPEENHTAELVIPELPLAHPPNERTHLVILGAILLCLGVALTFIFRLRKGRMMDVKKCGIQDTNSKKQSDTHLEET
Summary of the method: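 Fluorescent PD-1-Ig binding to PD-L1-expressing LK35.2 cells, imaged after washing. Conditions: 1 nM PE-PD-1-Ig, 37 °C, 1 h, RPMI with 10% fetal calf serum.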

[2] = cell binding assay, cell line not given, cluster symbol, read-out: CBA IC50 cluster
[3] = cluster symbol, cell line of CBA not given (LK35.2-hPD-L1 or 293T-hPD-L1), read-out: CBA IC50 cluster

Row | Compound | IC50 (Human PD-L1/PD-1) [nM] | IC50 [1, 2] [nM] | IC50 [1, 3] [nM] | IC50 ([1]; cell binding assay, cell line not given, value given instead of cluster, read-out: CBA IC50 value) [nM]
1 | CCCC[C@H]1C(=O)N(C)CC(=O)N[C@@H](CC(=O)O)C(=O)N[C@@H](C(C)C)C(=O)N(C)[C@@H](Cc2ccccc2)C(=O)N[C@@H](Cc2ccc(O)cc2)C(=O)N(C)CC(=O)N[C@@H](Cc2c[nH]c3ccccc23)C(=O)N[C@@H](Cc2ccccc2)C(=O)N[C@@H](CC(C)C)C(=O)N[C@H](C(=O)NCC(N)=O)CSCC(=O)N[C@@H](Cc2ccccc2)C(=O)N(C)[C@@H](Cc2ccccc2)C(=O)N1C [Example 3540] (HELM PEPTIDE1{[O=C(C[*:3])[*:2]].F.[meF].[CCCC[C@@H](C(=O)[*:2])N(C)[*:1]].[Sar].D.V.[meF].Y.[Sar].W.F.L.C.G.[am]}$PEPTIDE1,PEPTIDE1,1:R3-14:R3$$$V2.0) | > 30.5 | > 74.3 | – | –
2 | CCCC[C@H]1C(=O)N(C)[C@@H](CCCC)C(=O)N[C@@H](C)C(=O)N[C@H](C(=O)NCC(N)=O)CSCC(=O)N[C@@H](Cc2ccc(O)cc2)C(=O)N(C)[C@@H](C)C(=O)N[C@@H](CC(=O)O)C(=O)N2CCC[C@H]2C(=O)N[C@@H](Cc2cnc[nH]2)C(=O)N[C@@H](CC(C)C)C(=O)N2CCC[C@H]2C(=O)N[C@@H](Cc2c[nH]c3ccccc23)C(=O)N[C@@H](CO)C(=O)N[C@@H](Cc2c[nH]c3ccccc23)C(=O)N1C [Example 1121] ({CH2CO}-Y[NMeA]DPHLPWSW[NMeNle][NMeNle]ACG-NH2; thioether N-14) | 6.76 to 30.3 | – | 0.158 to 4.71 | –
3 | CCCC[C@H]1C(=O)N(C)[C@@H](CCCC)C(=O)N[C@@H](CO)C(=O)N[C@H](C(=O)NCC(N)=O)CSCC(=O)N[C@@H](Cc2ccc(O)cc2)C(=O)N(C)[C@@H](C)C(=O)N[C@@H](CCN)C(=O)N2CCC[C@H]2C(=O)N[C@@H](Cc2c[nH]cn2)C(=O)N[C@@H](CCC(=O)O)C(=O)N2C[C@H](O)C[C@H]2C(=O)N[C@@H](Cc2c[nH]c3ccccc23)C(=O)N[C@@H](C(C)C)C(=O)N[C@@H](Cc2c[nH]c3ccccc23)C(=O)N1C [Example 5097] ({CH2CO}-Y[NMeA][Dab]PHE[Hyp]WVW[NMeNle][NMeNle]SCG-NH2; thioether N-14) | 6.76 to 30.3 | – | – | 74.3
4 | CCCC[C@H]1C(=O)N(C)[C@@H](CCCC)C(=O)N[C@@H](CCCNC(=N)N)C(=O)N[C@H](C(=O)NCC(N)=O)CSCC(=O)N[C@@H](Cc2cscn2)C(=O)N(C)[C@@H](C)C(=O)N[C@@H](CC(N)=O)C(=O)N2CCC[C@H]2C(=O)N[C@@H](Cc2cnc[nH]2)C(=O)N[C@@H](CC(C)C)C(=O)N(C)CC(=O)N[C@@H](Cc2c[nH]c3ccccc23)C(=O)N[C@@H](CO)C(=O)N[C@@H](Cc2c[nH]c3ccccc23)C(=O)N1C [Example 1096] ({CH2CO}-[Ala(4-thiazolyl)][NMeA]NPHL[Sar]WSW[NMeNle][NMeNle]RCG-NH2; thioether N-14) | > 30.5 | – | > 74.3 | –
5 | CCCC[C@H]1C(=O)N(C)CC(=O)N[C@@H](CC(=O)O)C(=O)N[C@@H](C(C)C)C(=O)N(C)[C@@H](Cc2ccccc2)C(=O)N[C@@H](Cc2ccc(O)cc2)C(=O)N(C)CC(=O)N[C@@H](Cc2c[nH]c3ccccc23)C(=O)N[C@@H](Cc2ccc(O)cc2)C(=O)N[C@@H](CC(C)C)C(=O)N[C@H](C(=O)NCC(N)=O)CSCC(=O)N[C@@H](Cc2ccccc2)C(=O)N[C@@H](Cc2cccnc2)C(=O)N1C [Example 3602] ({CH2CO}-F[3Pal][NMeNle][Sar]DV[NMeF]Y[Sar]WYLCG-NH2; thioether N-13) | 6.76 to 30.3 | > 74.3 | – | –
6 | CC(C)C[C@@H]1NC(=O)[C@@H](Cc2c[nH]cn2)NC(=O)[C@@H]2CCCN2C(=O)[C@@H](CC(N)=O)NC(=O)C(C)N(C)C(=O)[C@H](Cc2ccc(O)cc2)NC(=O)CSC[C@H](C(=O)NCC(N)=O)NC(=O)[C@H](C)NC(=O)[C@@H](CC(=O)O)N(C)C(=O)[C@@H](CCCCN)N(C)C(=O)[C@H](Cc2c[nH]c3ccccc23)NC(=O)[C@H](CO)NC(=O)[C@@H](Cc2c[nH]c3ccccc23)NC(=O)C2C[C@@H](O)CN2C1=O (stereo partly shown) [Example 1221] | > 30.5 | – | > 74.3 | –

Second part, the molecule after the results:

Row | IC50 (Human PD-L1/PD-1) [nM] | IC50 [1, 2] [nM] | IC50 [1, 3] [nM] | IC50 ([1]; cell binding assay, cell line not given, value given instead of cluster, read-out: CBA IC50 value) [nM] | Compound
7 | 0.385 to 6.74 | – | 0.158 to 4.71 | – | CCCC[C@H]1C(=O)N(C)[C@@H](CCCC)C(=O)N[C@@H](CCCNC(=N)N)C(=O)N[C@H](C(=O)NCC(N)=O)CSCC(=O)N[C@@H](Cc2ccc(O)cc2)C(=O)N(C)[C@@H](C)C(=O)N[C@@H](CCC(=O)O)C(=O)N2CCC[C@H]2C(=O)N[C@@H](Cc2cnc[nH]2)C(=O)N[C@@H](CC(C)C)C(=O)N2CCC[C@H]2C(=O)N[C@@H](Cc2c[nH]c3ccccc23)C(=O)N[C@@H](CO)C(=O)N[C@@H](Cc2c[nH]c3ccccc23)C(=O)N1C [Example 1167] ({CH2CO}-Y[NMeA]EPHLPWSW[NMeNle][NMeNle]RCG-NH2; thioether N-14)
8 | 6.76 to 30.3 | 0.158 to 4.71 | – | – | CCCC[C@H]1C(=O)N(C)[C@@H](CCCC)C(=O)N[C@@H](C)C(=O)N[C@H](C(=O)NCC(N)=O)CSCC(=O)N[C@@H](Cc2ccc(O)cc2)C(=O)N(C)[C@@H](C)C(=O)N[C@@H](CC(N)=O)C(=O)N2CCC[C@H]2C(=O)N[C@@H](Cc2cnc[nH]2)C(=O)N[C@@H](CCC(N)=O)C(=O)N2C[C@H](O)C[C@H]2C(=O)N[C@@H](Cc2c[nH]c3ccccc23)C(=O)N[C@@H](CCN)C(=O)N[C@@H](Cc2c[nH]c3ccccc23)C(=O)N1C [Example 5038] ({CH2CO}-Y[NMeA]NPHQ[Hyp]W[Dab]W[NMeNle][NMeNle]ACG-NH2; thioether N-14)
9 | 0.385 to 6.74 | 0.158 to 4.71 | – | – | CCCC[C@H]1C(=O)N(C)[C@@H](CCCC)C(=O)N[C@@H](CCCNC(=N)N)C(=O)N[C@H](C(=O)NCC(=O)NCC(N)=O)CSCC(=O)N[C@@H](Cc2ccc(O)cc2)C(=O)N(C)[C@@H](C)C(=O)N[C@@H](CC(N)=O)C(=O)N2CCC[C@H]2C(=O)N[C@@H](Cc2cnc[nH]2)C(=O)N[C@@H](CC(C)C)C(=O)N2C[C@H](O)C[C@H]2C(=O)N[C@@H](Cc2c[nH]c3ccccc23)C(=O)N[C@@H](CO)C(=O)N[C@@H](Cc2c[nH]c3ccccc23)C(=O)N1C [Example 6017] ({CH2CO}-Y[NMeA]NPHL[Hyp]WSW[NMeNle][NMeNle]RCGG-NH2; thioether N-14)
10 | 0.385 to 6.74 | 0.158 to 4.71 | – | – | CCCC[C@H]1C(=O)N(C)[C@@H](CCCC)C(=O)N[C@@H](CCCN)C(=O)N[C@H](C(=O)NCC(N)=O)CSCC(=O)N[C@@H](Cc2ccc(O)cc2)C(=O)N(C)[C@@H](C)C(=O)N[C@@H](CC(N)=O)C(=O)N2CCC[C@H]2C(=O)N[C@@H](CN)C(=O)N[C@@H](CC(C)C)C(=O)N2C[C@H](Cc3ccccc3)C[C@H]2C(=O)N[C@@H](Cc2c[nH]c3ccccc23)C(=O)N[C@@H](CO)C(=O)N[C@@H](Cc2c[nH]c3ccccc23)C(=O)N1C [Example 13009] ({CH2CO}-Y[NMeA]NP[Dap]L[Pro(4R-Bn)]WSW[NMeNle][NMeNle][Orn]CG-NH2; thioether N-14)
11 | 0.385 to 6.74 | 0.158 to 4.71 | – | – | CCCC[C@H]1C(=O)N(C)[C@@H](CCCC)C(=O)N[C@@H](C)C(=O)N[C@H](C(=O)NCC(N)=O)CSCC(=O)N[C@@H](Cc2ccc(O)cc2)C(=O)N(C)[C@@H](C)C(=O)N[C@@H](CC(=O)O)C(=O)N2CCC[C@H]2C(=O)N[C@@H](Cc2c[nH]cn2)C(=O)N[C@@H](CCC(=O)O)C(=O)N2C[C@H](Cc3ccc(F)cc3)C[C@H]2C(=O)N[C@@H](Cc2c[nH]c3ccccc23)C(=O)N[C@@H](CCN)C(=O)N[C@@H](Cc2c[nH]c3ccccc23)C(=O)N1C [Example 13012] ({CH2CO}-Y[NMeA]DPHE[X3]W[Dab]W[NMeNle][NMeNle]ACG-NH2; thioether N-14)
